Laboratory results published in US7354588B1, “Functional derivatives of ICAM-1 with altered ability to bind LFA-1 or HRV” (Dana Farber Cancer Institute, priority 1987, dated 2008).

How the values were obtained:
[1] = system: human peripheral blood mononuclear cells (responder and irradiated stimulator cells); assay: Mixed lymphocyte reaction (MLR), ^3HT incorporation; assay type: cell-based; settings: Table 19, R × S, R6-5-D6 8 ng/ml, Dex 50 ng/ml
[2] = system: JY cells (LFA-1 dependent aggregation); assay: Qualitative aggregation assay (microtiter plate), PMA-induced JY cell aggregation; assay type: cell-based, human
Protocol: In order to assess the extent of cellular adhesion, aggregation assays were employed. Cell lines used in such assays were washed two times with RPMI 1640 medium containing 5 mM Hepes buffer (Sigma Chemical Co., St. Louis) and resuspended to a concentration of 2×10^6 cells/ml. Added to flat-bottomed, 96-well microtiter plates (No. 3596; Costar, Cambridge, Mass.) were 50 μl of appropriate monoclonal antibody supernatant or 50 μl of complete medium with or without purified monoclonal antibodies, 50 μl of complete medium containing 200 ng/ml of the phorbol ester phorbol myristate acetate (PMA) and 100 μl of cells at a concentration of 2×10^6 cells/ml in complete medium. This yielded a final concentration of 50 ng/ml PMA and 2×10^5 cells/well. Cells were allowed to settle spontaneously, and the degree of aggregation was scored at various time points. […] In order to obtain a more quantitative estimate of cellular adhesion, reagents and cells were added to 5 ml polystyrene tubes in the same order as above. Tubes were placed in a rack on a gyratory shaker at 37° C. After 1 hour at approximately 200 rpm, 10 μl of the cell suspension was placed in a hemocytometer and the number of free cells was quantitated. Percent aggregation was determined by the following equation: […]
The qualitative aggregation assay described in Example 2 was performed using the Epstein-Barr transformed cell line JY. […]

[3] = molecular target: ICAM-1-LFA-1 adhesion (Homo sapiens, UniProt P05107+P05362+P20701); settings: peptides; cited from earlier work
[4] = molecular target: T1, LFA-1 (Homo sapiens, UniProt P05107+P20701); assay: Adherence of COS cells expressing ICAM-1 or ICAM-1 mutants to plastic-bound purified LFA-1; assay type: cell-based
T1 construct: endogenous in cells

[5] = molecular target: T2, LFA-1 on SKW-3 cells (Homo sapiens, UniProt P05107+P20701); assay: SKW-3 cell binding to ICAM-1 bound to plastic (solid phase); assay type: cell-based; settings: purified protein bound to 96-well plates
T2 construct: SKW-3 cells bearing LFA-1 on their surface; endogenous in cells; host or cells: SKW-3 T-lymphoma cells
Description: The truncated ICAM-1 secreted from transfected cells was purified by immunoaffinity chromatography with an ICAM-1 specific antibody (R6-5-D6) and tested for functional activity in a cell binding assay. […] These preparations of ICAM-1 were allowed to bind to the surfaces of plastic 96-well plates (Nunc), to produce ICAM-1 bound to a solid-phase. After washing out unbound material, approximately 75-80% and 83-88% of SKW-3 cells bearing LFA-1 on their surface bound specifically to the native and to the truncated forms of ICAM-1, respectively.

[6] = system: HRV14; assay: Binding of [^35S]-Met labeled HRV14 to COS cells expressing ICAM-1 mutants; assay type: cell-based, human rhinovirus 14

T1 sequence (P20701 26-1170): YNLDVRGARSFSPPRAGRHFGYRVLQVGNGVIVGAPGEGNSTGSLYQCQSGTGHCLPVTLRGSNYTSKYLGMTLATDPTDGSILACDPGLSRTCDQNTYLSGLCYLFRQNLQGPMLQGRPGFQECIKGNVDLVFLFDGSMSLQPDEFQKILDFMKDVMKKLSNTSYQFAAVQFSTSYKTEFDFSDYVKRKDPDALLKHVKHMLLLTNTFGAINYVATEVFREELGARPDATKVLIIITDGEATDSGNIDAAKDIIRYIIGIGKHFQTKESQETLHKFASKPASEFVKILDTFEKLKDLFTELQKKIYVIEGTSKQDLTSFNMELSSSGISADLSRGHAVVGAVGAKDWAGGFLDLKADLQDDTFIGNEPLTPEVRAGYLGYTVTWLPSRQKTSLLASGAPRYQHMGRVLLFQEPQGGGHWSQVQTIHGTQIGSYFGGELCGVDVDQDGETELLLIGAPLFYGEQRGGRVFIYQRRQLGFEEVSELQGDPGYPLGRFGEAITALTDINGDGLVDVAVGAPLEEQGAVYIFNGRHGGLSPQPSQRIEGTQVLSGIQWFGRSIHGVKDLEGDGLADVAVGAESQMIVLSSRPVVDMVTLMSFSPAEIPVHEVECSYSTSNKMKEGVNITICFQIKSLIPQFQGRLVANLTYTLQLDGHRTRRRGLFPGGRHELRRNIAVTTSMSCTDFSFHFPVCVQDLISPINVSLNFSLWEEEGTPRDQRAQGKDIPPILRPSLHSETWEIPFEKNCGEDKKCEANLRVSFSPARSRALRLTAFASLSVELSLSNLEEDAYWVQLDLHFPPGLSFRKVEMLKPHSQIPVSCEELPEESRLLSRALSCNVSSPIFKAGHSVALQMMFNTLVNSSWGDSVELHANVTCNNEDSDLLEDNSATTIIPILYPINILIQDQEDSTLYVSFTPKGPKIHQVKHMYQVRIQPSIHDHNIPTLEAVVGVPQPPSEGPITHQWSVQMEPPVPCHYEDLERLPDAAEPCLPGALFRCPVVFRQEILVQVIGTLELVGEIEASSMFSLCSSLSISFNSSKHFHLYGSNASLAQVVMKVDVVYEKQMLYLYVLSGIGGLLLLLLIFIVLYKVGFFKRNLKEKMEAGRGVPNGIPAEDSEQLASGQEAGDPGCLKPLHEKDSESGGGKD
T1 sequence (P05107 23-769): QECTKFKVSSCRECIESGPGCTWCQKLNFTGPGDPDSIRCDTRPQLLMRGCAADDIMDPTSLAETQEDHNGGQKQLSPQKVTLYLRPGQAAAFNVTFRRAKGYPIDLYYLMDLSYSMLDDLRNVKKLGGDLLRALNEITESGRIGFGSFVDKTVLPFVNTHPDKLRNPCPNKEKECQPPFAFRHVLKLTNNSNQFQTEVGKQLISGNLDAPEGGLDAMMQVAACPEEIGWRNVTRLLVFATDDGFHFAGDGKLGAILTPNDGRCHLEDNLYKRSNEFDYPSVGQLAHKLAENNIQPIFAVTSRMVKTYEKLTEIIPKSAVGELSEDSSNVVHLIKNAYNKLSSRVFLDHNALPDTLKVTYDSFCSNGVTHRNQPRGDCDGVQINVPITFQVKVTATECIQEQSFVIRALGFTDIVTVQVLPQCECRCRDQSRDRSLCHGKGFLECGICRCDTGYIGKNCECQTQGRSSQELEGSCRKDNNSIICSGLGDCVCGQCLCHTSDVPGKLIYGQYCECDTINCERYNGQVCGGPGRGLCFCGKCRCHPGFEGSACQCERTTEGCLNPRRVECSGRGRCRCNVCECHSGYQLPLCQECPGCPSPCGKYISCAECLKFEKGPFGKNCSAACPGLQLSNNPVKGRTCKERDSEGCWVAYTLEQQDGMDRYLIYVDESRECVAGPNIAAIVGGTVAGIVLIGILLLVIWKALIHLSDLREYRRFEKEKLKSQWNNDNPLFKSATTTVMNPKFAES
Chain of ICAM-1-LFA-1 adhesion (P20701 26-1170, one chain of several): as the sequence (P20701 26-1170) above
Chain of ICAM-1-LFA-1 adhesion (P05107 23-769, one chain of several): as the sequence (P05107 23-769) above
T2 sequence (P20701 26-1170): as the sequence (P20701 26-1170) above
T2 sequence (P05107 23-769): as the sequence (P05107 23-769) above

C[C@@H]1C[C@H]2[C@@H]3CCC4=CC(=O)C=C[C@]4(C)[C@@]3(F)[C@@H](O)C[C@]2(C)[C@@]1(O)C(=O)CO [Dex, Dexamethasone]
inhibition at 0.05 µg/mL ([1]; Homo sapiens, PBMC): 59% | ^3HT Incorporation (CPM) ([1]; no inhibitor 34,199): 14,158 CPM

[Mg] [magnesium]
lowest concentration supporting PMA-induced JY cell aggregation ([2]; 1.25 mM calcium ions added to the medium): 0.02 millimolar | lowest concentration supporting PMA-induced JY cell aggregation ([2]; medium free of calcium ions): 0.3 mM

GRGESP
inhibition of ICAM-1-LFA-1 adhesion [3]: failure

GRGDSP
inhibition of ICAM-1-LFA-1 adhesion [3]: failure

B1: Native ICAM-1: native (wild-type) Intercellular Adhesion Molecule-1, purified or expressed in COS cells (protein, UniProt P05362 28-532, looked up)
Intercellular adhesion …: QTSVSPSKVILPRGGSVLVTCSTSCDQPKLLGIETPLPKKELLLPGNNRKVYELSNVQEDSQPMCYSNCPDGQSTAKTFLTVYWTPERVELAPLPSWQPVGKNLTLRCQVEGGAPRANLTVVLLRGEKELKREPAVGEPAEVTTTVLVRRDHHGANFSCRTELDLRPQGLELFENTSAPYQLQTFVLPATPPQLVSPRVLEVDTQGTVVCSLDGLFPVSEAQVHLALGDQRLNPTVTYGNDSFSAKASVSVTAEDEGTQRLTCAVILGNQSQETLQTVTIYSFPAPNVILTKPEVSEGTEVTVKCEAHPRAKVTLNGVPAQPLGPRAQLLLKATPEDNGRSFSCSATLEVAGQLIHKNQTRELRVLYGPRLDERDCPGNWTWPENSQQTPMCQAWGNPLPELKCLKDGTFPLPIGESVTVTRDLEGTYLCRARSTQGEVTRKVTVNVLSPRYEIVIITVVAAAVIMGTAGLSTYLYNRQRKIKKYRLQQAQKGTPMKPNTQATPP
Percent of ICAM-1 expressing COS cells that bound to LFA-1, mean [4]: 33% | Percent of ICAM-1 expressing COS cells that bound to LFA-1, range over experiments ([4]; mock-transfected 0-1%): 11-63% | % of Cells Expressing ICAM-1 that Bind LFA-1 in the Presence of RR1/1 ([4]; transfected Cos cells, purified LFA-1 on plastic): 0% | SKW-3 cells bound specifically to plastic-bound ICAM-1 [5]: 75-80% | Percent of [^35S] methionine-labeled HRV-14 which bound to COS cells, mean [6]: 21% | Percent of [^35S] methionine-labeled HRV-14 which bound to COS cells, range over experiments ([6]; mock-transfected 0-4%): 6-43%
